Measured values: patent US20220289724A1, “KIF18A INHIBITORS” (AMGEN INC., priority 2019, published 2022)

molecular target: T1, Recombinant human KIF18A (1-467 His-tagged) protein (Homo sapiens, UniProt Q8NI77); assay: KIF18A Enzyme Assay: microtubule-stimulated ATPase activity assay (ADP-Glo); type: biochemical; conditions: KIF18A protein 30 nM, 30 μg/mL pig microtubules, ATP at Km 75 μM, ADP-Glo luminescence, RT
T1 construct: Recombinant human KIF18A (1-467 His-tagged) protein; His; made in house
T1 sequence (Q8NI77 1-467): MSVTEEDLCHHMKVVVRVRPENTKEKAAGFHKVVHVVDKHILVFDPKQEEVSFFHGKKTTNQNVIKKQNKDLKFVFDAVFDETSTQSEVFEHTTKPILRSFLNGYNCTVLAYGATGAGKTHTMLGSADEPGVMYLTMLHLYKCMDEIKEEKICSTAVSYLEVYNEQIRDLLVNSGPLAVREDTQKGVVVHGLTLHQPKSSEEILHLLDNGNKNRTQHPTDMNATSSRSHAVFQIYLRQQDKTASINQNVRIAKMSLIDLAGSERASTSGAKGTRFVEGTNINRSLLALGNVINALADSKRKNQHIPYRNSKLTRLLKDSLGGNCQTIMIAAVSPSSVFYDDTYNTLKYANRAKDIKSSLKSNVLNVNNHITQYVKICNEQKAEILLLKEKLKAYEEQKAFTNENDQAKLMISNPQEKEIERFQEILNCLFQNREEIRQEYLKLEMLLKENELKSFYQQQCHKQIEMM
T1 sequence (P02550 whole entry partner): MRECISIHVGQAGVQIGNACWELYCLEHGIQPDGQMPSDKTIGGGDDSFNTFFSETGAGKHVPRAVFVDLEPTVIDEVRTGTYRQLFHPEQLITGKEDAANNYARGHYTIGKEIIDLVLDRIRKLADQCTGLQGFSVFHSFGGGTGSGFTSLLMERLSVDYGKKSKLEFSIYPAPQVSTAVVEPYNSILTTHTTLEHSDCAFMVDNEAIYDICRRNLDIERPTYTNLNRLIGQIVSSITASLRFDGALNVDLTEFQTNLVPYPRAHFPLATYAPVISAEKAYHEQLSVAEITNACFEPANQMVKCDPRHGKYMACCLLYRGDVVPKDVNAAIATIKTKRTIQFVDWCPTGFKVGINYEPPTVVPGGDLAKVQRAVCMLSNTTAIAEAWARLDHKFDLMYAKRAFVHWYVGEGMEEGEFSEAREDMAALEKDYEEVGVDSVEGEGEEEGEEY
T1 sequence (P02554 whole entry partner): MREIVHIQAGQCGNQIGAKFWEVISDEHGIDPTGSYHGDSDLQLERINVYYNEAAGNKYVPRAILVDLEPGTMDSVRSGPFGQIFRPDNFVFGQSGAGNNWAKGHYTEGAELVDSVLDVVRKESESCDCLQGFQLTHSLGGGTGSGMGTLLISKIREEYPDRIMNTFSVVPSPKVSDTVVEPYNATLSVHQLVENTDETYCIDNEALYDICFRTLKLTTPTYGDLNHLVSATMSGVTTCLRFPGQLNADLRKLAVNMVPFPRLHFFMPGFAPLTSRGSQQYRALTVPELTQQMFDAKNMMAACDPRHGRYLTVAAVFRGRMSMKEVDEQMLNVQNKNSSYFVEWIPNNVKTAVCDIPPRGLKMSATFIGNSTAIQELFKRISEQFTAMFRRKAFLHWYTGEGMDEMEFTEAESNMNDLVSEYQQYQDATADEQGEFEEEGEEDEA
Description: KIF18A Enzyme Assay: Microtubule-stimulated ATPase activity assay is used to measure KIF18A enzyme activity after treatment with compound. Compounds were 2-fold serially diluted in DMSO (Sigma Inc) over 22-point concentration range. Recombinant human KIF18A (1-467 His-tagged) protein was expressed using a baculovirus system and purified by affinity chromatography by Amgen Inc. Concentrations of KIF18A protein, microtubules (MT), and ATP in the reaction were optimized for standardized homogenous enzyme assay using ADP-Glorm Kinase/ATPase Assay Kit (Promega Inc). The assay measures ADP formed from the ATPase reaction. […] Concentration-response curve-fitting and IC50 determination was performed using Genedata Screener Software (Standard 15.0.1, Genedata Inc) with a four-parameter logistic regression fit model.
Table A provides data for compounds exemplified in the present application and priority document thereof, as representative compounds of the present invention, as follows: chemical name (as named by either ACD software or ChemDraw (Professional 15.0)) and biological data (IC50 in μM). Ex. […] refers to Example No.

| SMILES | IC50 |
| --- | --- |
| C[C@@H]1CN(c2cccc(NC(=O)c3ccc(NS(=O)(=O)CCO)cc3N3CCC4(CC3)CC4)c2F)CCO1 [Example 103-2, (R)-N-(2-fluoro-3-(2-methylmorpholino)phenyl)-4-((2-hydroxyethyl)sulfonamido)-2-(6-azaspiro[2.5]octan-6-yl)benzamide] | 101 nM |
| C[C@@H]1CN(c2cc(NC(=O)c3ccc(NS(=O)(=O)CCO)cc3N3CCC4(CC3)CC4)ccc2F)CCO1 [Example 103-4, (R)-N-(4-fluoro-3-(2-methylmorpholino)phenyl)-4-((2-hydroxyethyl)sulfonamido)-2-(6-azaspiro[2.5]octan-6-yl)benzamide] | 177 nM |
| Cc1cc(NC(=O)c2ccc(NS(=O)(=O)CCO)cc2N2CCC3(CC2)CC3)cc(N2CCC(F)(F)CC2)c1 [Example 104, N-(3-(4,4-difluoropiperidin-1-yl)-5-methylphenyl)-4-((2-hydroxyethyl)sulfonamido)-2-(6-azaspiro[2.5]octan-6-yl)benzamide] | 34 nM |
| O=C(Nc1cccc(N2CCC(F)(F)CC2)c1)c1ccc(NS(=O)(=O)CCO)cc1N1CCC2(CC1)CC2 [Example 104-1, N-(3-(4,4-difluoropiperidin-1-yl)phenyl)-4-((2-hydroxyethyl)sulfonamido)-2-(6-azaspiro[2.5]octan-6-yl)benzamide] | 12 nM |
| O=C(Nc1cccc(N2CCC(F)(F)CC2)c1F)c1ccc(NS(=O)(=O)CCO)cc1N1CCC2(CC1)CC2 [Example 104-2, N-(3-(4,4-difluoropiperidin-1-yl)-2-fluorophenyl)-4-((2-hydroxyethyl)sulfonamido)-2-(6-azaspiro[2.5]octan-6-yl)benzamide] | 29 nM |
| CC(C)(O)COc1cccc(NC(=O)c2ccc(NS(=O)(=O)CCO)cc2N2CCC3(CC2)CC3)c1 [Example 106, N-(3-(2-Hydroxy-2-methylpropoxy)phenyl)-4-((2-hydroxyethyl)sulfonamido)-2-(6-azaspiro[2.5]octan-6-yl)benzamide] | 78 nM |
| CC(C)(C)NS(=O)(=O)c1cccc(NC(=O)c2ccc(S(=O)(=O)N3CCC3)cc2N2CCC3(CC2)CC3)c1 [Example 107, 4-(Azetidin-1-ylsulfonyl)-N-(3-(N-(tert-butyl)sulfamoyl)phenyl)-2-(6-azaspiro[2.5]octan-6-yl)benzamide] | 44 nM |
| CC(C)(C)NS(=O)(=O)c1cccc(NC(=O)c2ccc(S(=O)(=O)NC(C)(C)CO)cc2N2CCC3(CC2)CC3)c1 [Example 107-1, N-(3-(N-(tert-butyl)sulfamoyl)phenyl)-4-(N-(1-hydroxy-2-methylpropan-2-yl)sulfamoyl)-2-(6-azaspiro[2.5]octan-6-yl)benzamide] | 60 nM |
| CC(C)(C)NS(=O)(=O)c1cccc(NC(=O)c2ccc(S(=O)(=O)NCCO)cc2N2CCC3(CC2)CC3)c1 [Example 107-2, N-(3-(N-(tert-butyl)sulfamoyl)phenyl)-4-(N-(2-hydroxyethyl)sulfamoyl)-2-(6-azaspiro[2.5]octan-6-yl)benzamide] | 43 nM |
| CN(C)S(=O)(=O)c1ccc(C(=O)Nc2cccc(S(=O)(=O)NC(C)(C)C)c2)c(N2CCC3(CC2)CC3)c1 [Example 107-3, N-(3-(N-(tert-butyl)sulfamoyl)phenyl)-4-(N,N-dimethylsulfamoyl)-2-(6-azaspiro[2.5]octan-6-yl)benzamide] | 70 nM |
| CNS(=O)(=O)c1ccc(C(=O)Nc2cccc(S(=O)(=O)NC(C)(C)C)c2)c(N2CCC3(CC2)CC3)c1 [Example 107-4, N-(3-(N-(tert-butyl)sulfamoyl)phenyl)-4-(N-methylsulfamoyl)-2-(6-azaspiro[2.5]octan-6-yl)benzamide] | 29 nM |
| CC(C)(C)NS(=O)(=O)c1cccc(NC(=O)c2ccc(S(=O)(=O)NC3COC3)cc2N2CCC3(CC2)CC3)c1 [Example 107-5, N-(3-(N-(tert-butyl)sulfamoyl)phenyl)-4-(N-(oxetan-3-yl)sulfamoyl)-2-(6-azaspiro[2.5]octan-6-yl)benzamide] | 60 nM |
| CC(C)(C)NS(=O)(=O)c1cccc(NC(=O)c2ccc(S(=O)(=O)NC3CC3)cc2N2CCC3(CC2)CC3)c1 [Example 107-6, N-(3-(N-(tert-butyl)sulfamoyl)phenyl)-4-(N-cyclopropylsulfamoyl)-2-(6-azaspiro[2.5]octan-6-yl)benzamide] | 36 nM |
| CC(C)(C)NS(=O)(=O)c1cccc(NC(=O)c2ccc(S(=O)(=O)NC3(C)CC3)cc2N2CCC3(CC2)CC3)c1 [Example 107-7, N-(3-(N-(tert-butyl)sulfamoyl)phenyl)-4-(N-(1-methylcyclopropyl)sulfamoyl)-2-(6-azaspiro[2.5]octan-6-yl)benzamide] | 52 nM |
| CC(C)(C)NS(=O)(=O)c1cccc(NC(=O)c2ccc(S(N)(=O)=O)cc2N2CCC3(CC2)CC3)c1 [Example 107-8, N-(3-(N-(tert-butyl)sulfamoyl)phenyl)-2-(6-azaspiro[2.5]octan-6-yl)-4-sulfamoylbenzamide] | 40 nM |
| Cn1ccnc1-c1ccc(C(=O)Nc2cccc(S(=O)(=O)NC(C)(C)C)c2)c(N2CCC3(CC2)CC3)c1 [Example 109, N-(3-(N-(tert-butyl)sulfamoyl)phenyl)-4-(1-methyl-1H-imidazol-2-yl)-2-(6-azaspiro[2.5]octan-6-yl)benzamide] | 124 nM |
| CC(C)(C)NS(=O)(=O)c1cccc(NC(=O)c2ccc(NC(C)(C)CO)cc2N2CCC3(CC2)CC3)c1 [Example 110, N-(3-(N-(tert-Butyl)sulfamoyl)phenyl)-4-((1-hydroxy-2-methylpropan-2-yl)amino)-2-(6-azaspiro[2.5]octan-6-yl)benzamide] | 58 nM |
| CC(C)(C)NS(=O)(=O)c1cccc(NC(=O)c2ccc(C(=O)NCCO)cc2N2CCC3(CC2)CC3)c1 [Example 111, N-(3-(N-(tert-Butyl)sulfamoyl)phenyl)-N^4-(2-hydroxyethyl)-2-(6-azaspiro[2.5]octan-6-yl)terephthalamide] | 124 nM |

Now from value to compound:

| IC50 | SMILES |
| --- | --- |
| 601 nM | Cn1nccc1-c1ccc(C(=O)Nc2cccc(S(=O)(=O)NC(C)(C)C)c2)c(N2CCC3(CC2)CC3)c1 [Example 109-1, N-(3-(N-(tert-butyl)sulfamoyl)phenyl)-4-(1-methyl-1H-pyrazol-5-yl)-2-(6-azaspiro[2.5]octan-6-yl)benzamide] |
| 1090 nM | Cn1cc(-c2ccc(C(=O)Nc3cccc(S(=O)(=O)NC(C)(C)C)c3)c(N3CCC4(CC3)CC4)c2)cn1 [Example 109-2, N-(3-(N-(tert-butyl)sulfamoyl)phenyl)-4-(1-methyl-1H-pyrazol-4-yl)-2-(6-azaspiro[2.5]octan-6-yl)benzamide] |
| 534 nM | CC(C)(C)NS(=O)(=O)c1cccc(NC(=O)c2ccc(-c3ncco3)cc2N2CCC3(CC2)CC3)c1 [Example 109-3, N-(3-(N-(tert-butyl)sulfamoyl)phenyl)-4-(oxazol-2-yl)-2-(6-azaspiro[2.5]octan-6-yl)benzamide] |
| 134 nM | CC(C)(C)NS(=O)(=O)c1cccc(NC(=O)c2ccc(NCCO)cc2N2CCC3(CC2)CC3)c1 [Example 110-1, N-(3-(N-(tert-butyl)sulfamoyl)phenyl)-4-((2-hydroxyethyl)amino)-2-(6-azaspiro[2.5]octan-6-yl)benzamide] |
| 132 nM | CNC(=O)c1ccc(C(=O)Nc2cccc(S(=O)(=O)NC(C)(C)C)c2)c(N2CCC3(CC2)CC3)c1 [Example 111-1, N^1-(3-(N-(tert-butyl)sulfamoyl)phenyl)-N^4-methyl-2-(6-azaspiro[2.5]octan-6-yl)terephthalamide] |
| 201 nM | CN(CCO)C(=O)c1ccc(C(=O)Nc2cccc(S(=O)(=O)NC(C)(C)C)c2)c(N2CCC3(CC2)CC3)c1 [Example 111-2, N^1-(3-(N-(tert-butyl)sulfamoyl)phenyl)-N^4-(2-hydroxyethyl)-N^4-methyl-2-(6-azaspiro[2.5]octan-6-yl)terephthalamide] |
| 272 nM | CC(C)(C)NS(=O)(=O)c1cccc(NC(=O)c2ccc(C(=O)NC(C)(C)CO)cc2N2CCC3(CC2)CC3)c1 [Example 111-3, N^1-(3-(N-(tert-butyl)sulfamoyl)phenyl)-N^4-(1-hydroxy-2-methylpropan-2-yl)-2-(6-azaspiro[2.5]octan-6-yl)terephthalamide] |
| 139 nM | O=C(NCCO)c1ccc(C(=O)Nc2cccc(S(=O)(=O)C3CCCC3)c2)c(N2CCC3(CC2)CC3)c1 [Example 111-4, N^1-(3-(cyclopentylsulfonyl)phenyl)-N^4-(2-hydroxyethyl)-2-(6-azaspiro[2.5]octan-6-yl)terephthalamide] |
| 429 nM | C[S@@](=N)(=O)c1cccc(NC(=O)c2ccc(NS(=O)(=O)CCO)cc2N2CCC3(CC2)CC3)c1 [Example 113-1, (R)-4-((2-hydroxyethyl)sulfonamido)-N-(3-(S-methylsulfonimidoyl)phenyl)-2-(6-azaspiro[2.5]octan-6-yl)benzamide] |
| 488 nM | C[S@](=N)(=O)c1cccc(NC(=O)c2ccc(NS(=O)(=O)CCO)cc2N2CCC3(CC2)CC3)c1 [Example 113-2, (S)-4-((2-hydroxyethyl)sulfonamido)-N-(3-(S-methylsulfonimidoyl)phenyl)-2-(6-azaspiro[2.5]octan-6-yl)benzamide] |
| 194 nM | CC(C)(C)[S@@](=N)(=O)c1cccc(NC(=O)c2ccc(NS(=O)(=O)CCO)cc2N2CCC3(CC2)CC3)c1 [Example 114-1, (R)-4-((2-hydroxyethyl)sulfonamido)-N-(3-(2-methylpropan-2-ylsulfonimidoyl)phenyl)-2-(6-azaspiro[2.5]octan-6-yl)benzamide] |
